Experimental findings from US10562912B2 (C&C Research Laboratories, priority 2013, dated 2020) are described below.

What all share (type): cell-based
One test deals with T1, STAT3 (Homo sapiens, UniProt P40763).
T1 construct: plasmid pSTAT3-TA-luc), which contains a stably operating STAT3 promoter; endogenous in cells
The test is described as follows: STAT3 reporter gene assay (luciferase), LNCaP stable cell line (pSTAT3-TA-luc), IL-6 stimulation. The procedure, abridged:
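Cytotoxicity was run on a duplicate plate with CellTiter-Glo, while the other plate gave luciferase read-outs from lysed LNCaP pSTAT3-TA-luc reporter cells. Cells were treated with graded compound concentrations plus IL-6 (10 ng/mL final) for 24–48 h in 3% DCC-FBS medium. Unstimulated and stimulated wells served as negative and positive controls.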
For orientation: A reporter such as luciferase makes a cellular process visible.

Another test has as its system LNCaP. Kind of test: Cell growth inhibition assay, prostate cancer cell line LNCaP (medium with 10 ng/mL IL-6). The note with it: Homo sapiens, medium supplemented with 10 ng/mL of IL-6, 10,000 cells/well.
The subject of a further test is MDA-MB-231. Kind of test: Cell growth inhibition assay, breast cancer cell line MDA-MB-231. The note with it: Homo sapiens; MDA-MB-231 breast cancer cell line, 5,000 cells/well. On the procedure:
The inhibitory effects of the compounds of the present invention against the growth of cancer cells were evaluated as shown below. The cancer cell lines including stomach cancer cell line (AGS), breast cancer cell lines (MDA-MB-231, MDA-MB-468, and BT-549), prostate cancer cell lines (LNCaP and DU-145), colon cancer cell line (HCT116), ovarian cancer cell line (SW626), liver cancer cell line (Hep3B), kidney cancer cell line (ACHN), lung cancer cell line (NCI-H23) and blood cancer cell lines (HEL92.1.7 and U266) were cultured under the protocol provided by each supplier. A medium supplemented with 10 ng/mL of IL-6 was used for LNCaP, a prostate cancer cell line, when treated with a drug. Each type of cells to be used in experiments were sub-cultured in a 96-well plate by counting the exact number of cells using Tali™ Image-based Cytometer (Life Technologies). In a 96-well plate, AGS, HCT116, and DU-145 were employed with 3,000 cells/well; NCI-H23, SW626, Hep3B, ACHN, BT-549, MDA-MB-231, HEL92.1.7, and U266 were employed with 5,000 cells/well; and LNCaP and MDA-MB-468 were employed with 10,000 cells/well. The cells were treated with the compounds listed in Examples which were diluted in various concentrations. Upon completion of the compounds treatment, AGS, HCT116, SW626, DU145, NCI-H23, Hep3B, ACHN, BT-549, LNCaP, HEL92.1.7, and U266 cells were cultured at 37° C. under 5% CO2 for from 72 to 96 hours, and MDA-MB-231 and MDA-MB-468 cells were cultured at 37° C. in air for from 72 to 96 hours. Subsequently, the cells were observed under microscope and drug precipitation and particular findings were investigated and recorded. And then, the 96-well plate was placed at room temperature for 30 minutes, added with 20 μL/well of CellTiter-Glo solution (Cat No. G7573, Promega) and shaken for 10 minutes, followed by being subjected to the measurement using PHERAstar™ microplate reader (BMG LABTECH) according to the supplier's general luminometer protocol. Wells where only culture liquid added without cell plating were used as a negative control, whereas wells where culture liquid containing 0.1% DMSO instead of the compounds listed in Examples were used as a positive control.

The next test concerns DU-145. Kind of test: Cell growth inhibition assay, prostate cancer cell line DU-145. The note with it: Homo sapiens, DU-145 prostate cancer cell line. Summed up:
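Seed DU-145/HCT116 3,000 cells/well, SW626 5,000 cells/well; add compound dilution series; incubate 72–96 h, 37° C., 5% CO2; microscope check for precipitate; CellTiter-Glo, luminescence. Blank = no cells; vehicle = 0.1% DMSO.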

A value given as a limit tells only on which side of the number the result lay.

T1 sequence (P40763 whole entry): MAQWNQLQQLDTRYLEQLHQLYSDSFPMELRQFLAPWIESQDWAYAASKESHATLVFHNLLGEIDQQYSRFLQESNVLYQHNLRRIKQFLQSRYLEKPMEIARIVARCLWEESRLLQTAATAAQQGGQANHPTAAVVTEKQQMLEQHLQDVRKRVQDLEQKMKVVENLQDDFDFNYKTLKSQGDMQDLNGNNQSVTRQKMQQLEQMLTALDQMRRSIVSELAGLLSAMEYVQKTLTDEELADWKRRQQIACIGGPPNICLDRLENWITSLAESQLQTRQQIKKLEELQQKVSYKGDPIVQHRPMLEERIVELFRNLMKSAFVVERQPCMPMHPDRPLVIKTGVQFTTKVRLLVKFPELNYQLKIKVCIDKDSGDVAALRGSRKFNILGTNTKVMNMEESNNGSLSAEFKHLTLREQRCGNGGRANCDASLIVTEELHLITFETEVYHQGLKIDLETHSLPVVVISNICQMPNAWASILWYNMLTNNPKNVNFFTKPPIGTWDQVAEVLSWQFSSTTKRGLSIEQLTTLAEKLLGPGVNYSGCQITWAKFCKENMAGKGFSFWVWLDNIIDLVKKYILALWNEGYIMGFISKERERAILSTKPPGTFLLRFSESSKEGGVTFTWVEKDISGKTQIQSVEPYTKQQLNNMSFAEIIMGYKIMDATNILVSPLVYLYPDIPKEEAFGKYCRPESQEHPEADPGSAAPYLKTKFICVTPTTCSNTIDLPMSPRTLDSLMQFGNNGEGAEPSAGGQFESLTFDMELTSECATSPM

With `CC(C)(c1ccc(F)cc1)c1cccc(NC(=O)c2cc3ccc(NS(C)(=O)=O)cc3[nH]2)c1` [Example 1, N-(3-(2-(4-fluorophenyl)propan-2-yl)phenyl)-6-(methylsulfonamido)-1H-indole-2-carboxamide], the IC50 (usually the concentration that gives 50% inhibition) against STAT3 is 0.19 µM; with LNCaP, 2.5 µM; in the test on MDA-MB-231, 0.23 µM.

As to `CC(C)(c1ccccc1)c1cccc(NC(=O)c2cc3ccc(NS(C)(=O)=O)cc3[nH]2)c1` [Example 2, 6-(methylsulfonamido)-N-(3-(2-phenylpropan-2-yl)phenyl)-1H-indole-2-carboxamide], the IC50 worked out at 0.2 µM against STAT3, 5.3 µM with LNCaP and 0.14 µM in the test with MDA-MB-231.

As for `COc1cc2cc(C(=O)Nc3cccc(C(C)(C)c4ccc(F)cc4)c3)[nH]c2cc1NS(C)(=O)=O` [Example 3, N-(3-(2-(4-fluorophenyl)propan-2-yl)phenyl)-5-methoxy-6-(methylsulfonamido)-1H-indole-2-carboxamide], the IC50 against STAT3 came to 0.22 µM; in the test on LNCaP, 1.1 µM; in the test on MDA-MB-231 it was 0.09 µM.

For the compound `COc1cc(NC(=O)c2cc3ccc(NS(C)(=O)=O)cc3[nH]2)cc(C(C)(C)c2cccc(OC(F)(F)F)c2)c1` [Example 4, N-(3-methoxy-5-(2-(3-(trifluoromethoxy)phenyl)propan-2-yl)phenyl)-6-(methylsulfonamido)-1H-indole-2-carboxamide], the IC50 against STAT3 is 0.34 µM; in the test with LNCaP, 0.82 µM; with MDA-MB-231, 0.052 µM.

Take `CNS(=O)(=O)Nc1ccc2cc(C(=O)Nc3cccc(C(C)(C)c4ccc(F)cc4)c3)[nH]c2c1` [Example 5, N-(3-(2-(4-fluorophenyl)propan-2-yl)phenyl)-6-((N-methylsulfamoyl)amino)-1H-indole-2-carboxamide]: the results for the IC50 against STAT3, with LNCaP and with MDA-MB-231 were 1.2 µM, 4.7 µM and 1.2 µM, respectively.

As to `CC(C)(c1ccc(F)cc1)c1cccc(NC(=O)c2cc3ccc(S(C)(=O)=O)cc3[nH]2)c1` [Example 6, N-(3-(2-(4-fluorophenyl)propan-2-yl)phenyl)-6-(methylsulfonyl)-1H-indole-2-carboxamide], the IC50 at STAT3, in the test on LNCaP and in the test on MDA-MB-231 was greater than 10 µM throughout.

For the compound `CC(C)(c1cccc(NC(=O)c2cc3ccc(NS(C)(=O)=O)cc3[nH]2)c1)c1ccccc1F` [Example 7, N-(3-(2-(2-fluorophenyl)propan-2-yl)phenyl)-6-(methylsulfonamido)-1H-indole-2-carboxamide], the IC50 on STAT3 was 0.31 µM; in the test on LNCaP, 2.4 µM; with MDA-MB-231, 0.35 µM.

As to `CC(C)(c1cccc(NC(=O)c2cc3ccc(NS(C)(=O)=O)cc3[nH]2)c1)c1cccc(OC(F)(F)F)c1` [Example 8, 6-(methylsulfonamido)-N-(3-(2-(3-(trifluoromethoxy)phenyl)propan-2-yl)phenyl)-1H-indole-2-carboxamide], the IC50 against STAT3 was found to be 0.12 µM; in the test with LNCaP it was 0.87 µM; in the test with MDA-MB-231, 0.018 µM.

For the compound `CS(=O)(=O)Nc1cc2cc(C(=O)Nc3cc(Cl)cc(Oc4ccc(F)cc4)c3)sc2cc1Cl` [Example 478, 6-chloro-N-(3-chloro-5-(4-fluorophenoxy)phenyl)-5-(methylsulfonamido)benzo[b]thiophene-2-carboxamide], the IC50 on STAT3 stood at 0.022 µM; in the test on LNCaP, 0.018 µM; with DU-145, 0.012 µM.

Take `CS(=O)(=O)Nc1cc2cc(C(=O)Nc3cc(Cl)cc(Oc4cccc(OC(F)(F)F)c4)c3)sc2cc1Cl` [Example 479, 6-chloro-N-(3-chloro-5-(3-(trifluoromethoxy)phenoxy)phenyl)-5-(methylsulfonamido)benzo[b]thiophene-2-carboxamide]: the results for the IC50 against STAT3, in the test on LNCaP and with DU-145 were 0.014 µM, 0.008 µM and 0.006 µM, respectively.

Regarding `CS(=O)(=O)Nc1cc2cc(C(=O)Nc3cc(Cl)cc(Oc4ccc(OC(F)(F)F)cc4)c3)sc2cc1Cl` [Example 480, 6-chloro-N-(3-chloro-5-(4-(trifluoromethoxy)phenoxy)phenyl)-5-(methylsulfonamido)benzo[b]thiophene-2-carboxamide], the IC50 against STAT3 is 0.019 µM; in the test with LNCaP, 0.01 µM; in the test on DU-145, 0.007 µM.

As for `CS(=O)(=O)Nc1cc2cc(C(=O)Nc3cc(Cl)cc(Oc4ccc(F)c(F)c4)c3)sc2cc1Cl` [Example 481, 6-chloro-N-(3-chloro-5-(3,4-difluorophenoxy)phenyl)-5-(methylsulfonamido)benzo[b]thiophene-2-carboxamide], the IC50 was found to be 0.015 µM against STAT3, 0.036 µM with LNCaP and 0.008 µM in the test on DU-145.

Take `CS(=O)(=O)Nc1cc2cc(C(=O)Nc3cc(Cl)cc(Oc4ccc(C(F)(F)F)cc4)c3)sc2cc1Cl` [Example 482, 6-chloro-N-(3-chloro-5-(4-(trifluoromethyl)phenoxy)phenyl)-5-(methylsulfonamido)benzo[b]thiophene-2-carboxamide]: the IC50 against STAT3 is 0.016 µM; in the test on LNCaP, 0.013 µM; in the test on DU-145, 0.005 µM.

In the case of `CS(=O)(=O)Nc1cc2cc(C(=O)Nc3cc(Cl)cc(Oc4cc(F)cc(Cl)c4)c3)sc2cc1Cl` [Example 483, 6-chloro-N-(3-chloro-5-(3-chloro-5-fluorophenoxy)phenyl)-5-(methylsulfonamido)benzo[b]thiophene-2-carboxamide], the values for the IC50 on STAT3, in the test on LNCaP and in the test with DU-145 were 0.014 µM, 0.02 µM and 0.01 µM, respectively.

In the case of `COc1cc(F)cc(Oc2cc(Cl)cc(NC(=O)c3cc4cc(NS(C)(=O)=O)c(Cl)cc4s3)c2)c1` [Example 484, 6-chloro-N-(3-chloro-5-(3-fluoro-5-methoxyphenoxy)phenyl)-5-(methylsulfonamido)benzo[b]thiophene-2-carboxamide], the 50% inhibitory concentration (IC50) was 0.021 µM at STAT3, 0.037 µM in the test with LNCaP and 0.021 µM with DU-145.

Regarding `CS(=O)(=O)Nc1cc2sc(C(=O)Nc3cc(Cl)cc(Oc4ccc(Cl)cc4)c3)cc2cc1Cl` [Example 485, 5-chloro-N-(3-chloro-5-(4-chlorophenoxy)phenyl)-6-(methylsulfonamido)benzo[b]thiophene-2-carboxamide], the IC50 against STAT3 was 0.129 µM; in the test on LNCaP, greater than 1.1 µM; in the test on DU-145 it was 0.38 µM.

For the compound `CS(=O)(=O)Nc1cc2cc(C(=O)Nc3cc(Cl)cc(OC4CCCCC4)c3)sc2cc1Cl` [Example 486, 6-chloro-N-(3-chloro-5-(cyclohexyloxy)phenyl)-5-(methylsulfonamido)benzo[b]thiophene-2-carboxamide], the IC50 was 0.11 µM against STAT3, 0.083 µM in the test with LNCaP and 0.048 µM in the test with DU-145.

`Cc1ccc(Oc2cc(Cl)cc(NC(=O)c3cc4cc(NS(C)(=O)=O)c(Cl)cc4s3)c2)s1` [Example 487, 6-chloro-N-(3-chloro-5-((5-methylthiophen-2-yl)oxy)phenyl)-5-(methylsulfonamido)benzo[b]thiophene-2-carboxamide]: the IC50 stood at 0.059 µM on STAT3, 0.036 µM in the test on LNCaP and 0.025 µM in the test with DU-145.

For `Cc1cc(OC(C)C)cc(C(C)(C)c2cc(Cl)cc(NC(=O)c3cc4c(Br)c(NS(C)(=O)=O)ccc4s3)c2)c1` [Example 488, 4-bromo-N-(3-chloro-5-(2-(3-isopropoxy-5-methylphenyl)propan-2-yl)phenyl)-5-(methylsulfonamido)benzo[b]thiophene-2-carboxamide], the values for the IC50 against STAT3, with LNCaP and in the test with DU-145 were 0.35 µM, 2.5 µM and 1.1 µM, respectively.

With `CS(=O)(=O)Nc1ccc2sc(C(=O)Nc3cc(Cl)nc(Oc4ccc(Cl)cc4)c3)cc2c1` [Example 489, N-(2-chloro-6-(4-chlorophenoxy)pyridin-4-yl)-5-(methylsulfonamido)benzo[b]thiophene-2-carboxamide], the IC50 against STAT3 stood at 0.11 µM; with LNCaP it was 0.11 µM; in the test with DU-145, 0.031 µM.
